In patent publication US20230391881A1, “COMPOSITIONS AND METHODS FOR OVERCOMING DR5-INDUCED IMMUNE EVASION BY SOLID TUMORS” (University of Virginia Patent Foundation, priority 2020, published 2023):

Legend:
UCD52 TNBC PDX tumors = experiment: PD-L1 IHC of KMTR2 treated UCD52 TNBC PDX tumors; assay type: in vivo, mouse; details: KMTR2 50 μg, 4 doses; NSG mice
DR5 = DR5 knockout (DR5-KO) versus DR5-WT TNBC cells: viability, PD-L1, S5a, ubiquitin; assay type: cell-based, human; details: for overall ubiquitin signal in lysates: DR5 sensitive versus DR5-KO cells (FIG. 2P)
Sequence of DR5 (O14763 56-184 limits assumed): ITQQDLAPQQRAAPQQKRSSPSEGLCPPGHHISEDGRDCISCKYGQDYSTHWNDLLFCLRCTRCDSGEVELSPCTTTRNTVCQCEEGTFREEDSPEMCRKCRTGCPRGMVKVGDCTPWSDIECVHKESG
Protocol: In Vitro Cell Viability Assays. Cell viability following Apo2L, lexatumumab, KMTR2, tigatuzumab, AMG-655, MD5-1, avelu-MD5, etc. treatments as indicated in the Figures either alone in combination with inhibitors (ROCK1, ERK, caspase inhibitors, etc.) or in combination with an anti-Fc reagent (For tigatuzumab, AMG-655, MD5-1, etc.) were determined using the ALAMARBLUE™ cell viability assays and MTT cell proliferation assays as per the manufacturer's protocols (ThermoFisher Scientific). Briefly, cells were treated with increasing concentration of various antibodies as indicated along with relevant positive and negative control antibodies for 6 hours, 24 hours, or 48 hours as indicated. For each cell killing assay the figures show the representative profiles from n=2-4 with different cultured confluency. Whenever used for immunoblotting, following antibodies treatment caspase-3 processing in tumor cells was monitored using selective antibodies that recognize cleaved human caspase-3 or total caspase-3 (Catalog Nos. 9661 and 9668; Cell Signaling Technology, Danvers, Massachusetts, United States of America). TRAIL-R2 receptor in oligomerization was determined using immunoblotting assays (Cell Signaling Technology Rabbit mAb, Catalog No. 8074). Cell viability was additionally examined by flow cytometry based apoptotic detection methods using 7-aminoactinomycin D (7-ADD) exclusion from live cells.
Western Blotting. Cells were cultured overnight in tissue culture-treated 6-well plates prior to treatment. After antibody treatment for 48 hours or another indicated time, cells were rinsed with PBS and then lysed with RIPA buffer supplemented with protease inhibitor cocktail (ThermoFisher Scientific). Centrifugation at 14000 rpm for 30 minutes cleared lysates and protein was quantified by PIERCE™ BCA Protein Assay Kit (ThermoFisher Scientific). Western blotting was performed using the Bio-Rad SDS-PAGE Gel system. Briefly, 30 μg of protein was resolved on 10% Bis-Tris gels and then transferred onto PVDF membrane. Membranes were blocked for one hour at room temperature in TBS+0.1% Tween (TBST) with 5% non-fat dry milk. Membranes were probed overnight at 4° C. with primary antibodies. Membranes were washed three times in TBST and then incubated with anti-rabbit or anti-mouse secondary antibodies (1/10,000 dilution, coupled to peroxidase) for 1 hour at room temperature. Membranes were then washed three times with TBST and immunocomplexes were detected with SUPERSIGNAL™ West Pico Chemiluminescent Substrate (ThermoFisher Scientific). […]
Flow cytometry. The cell surface expression of PD-L1, CD47, huDR5, muDR5, CD8, CD4, CD25 etc. was analyzed by flow cytometry. […] The data was analyzed by FCS Express (De Novo Software, Los Angeles, California, United States of America) and FlowJo. […]

PD-L1 = experiment: Western blotting / flow cytometry of PD-L1 and regulators in tumor cells; assay type: cell-based, human; details: ovarian and TNBC tumor cells
Protocol: Western Blotting. Cells were cultured overnight in tissue culture-treated 6-well plates prior to treatment. After antibody treatment for 48 hours or another indicated time, cells were rinsed with PBS and then lysed with RIPA buffer supplemented with protease inhibitor cocktail (ThermoFisher Scientific). Centrifugation at 14000 rpm for 30 minutes cleared lysates and protein was quantified by PIERCE™ BCA Protein Assay Kit (ThermoFisher Scientific). Western blotting was performed using the Bio-Rad SDS-PAGE Gel system. Briefly, 30 μg of protein was resolved on 10% Bis-Tris gels and then transferred onto PVDF membrane. Membranes were blocked for one hour at room temperature in TBS+0.1% Tween (TBST) with 5% non-fat dry milk. Membranes were probed overnight at 4° C. with primary antibodies. Membranes were washed three times in TBST and then incubated with anti-rabbit or anti-mouse secondary antibodies (1/10,000 dilution, coupled to peroxidase) for 1 hour at room temperature. Membranes were then washed three times with TBST and immunocomplexes were detected with SUPERSIGNAL™ West Pico Chemiluminescent Substrate (ThermoFisher Scientific). Images were taken using a Bio-Rad Gel Doc Imager system.
(§1) Flow cytometry. The cell surface expression of PD-L1, CD47, huDR5, muDR5, CD8, CD4, CD25 etc. was analyzed by flow cytometry. Overnight grown tumors were trypsinized and suspended in FACS buffer (PBS containing 2% FBS). Single cell suspensions were then incubated with primary DR4/DR5 antibodies for 1 hour at 4° C. with gentle mixing. Following wash with FACS buffer, the cells were then incubated with fluorescently labeled anti-Rabbit antibody for 1 hour. Cells were washed and flow cytometry was performed using a BD FACSCALIBUR™ flow cytometer. The data was analyzed by FCS Express (De Novo Software, Los Angeles, California, United States of America) and FlowJo.

[1] = tested on: DR5-KO (MDA-MB-231) cells; experiment: ApoEV isolation and PD-L1 transfer to DR5-KO cells; assay type: cell-based, human; details: ApoEVs from treated DR5-WT cells
Protocol: FIG. 12. TNF-α stabilized PD-L1 is not shuttled to ApoEVs. ApoEVs were isolated from DR5-WT MDA-MB-436 and OVCAR-3 cells after treatment with IgG1, TNF-α and lexatumumab. Isolated ApoEVs were incubated on to DR5-KO (MDA-MB-231) cells. After 24 hours surface PD-L1 of DR5-KO cells was analyze by flow cytometry. Top panel show secondary antibody control, IgG1 treatment control and basal level PD-L1 levels on MDA-MB-231 DR5 KO cells.
ApoEV isolation. 4×10^6 cells were seeded onto 3×150 mm dishes in a total volume of 45 ml of DMEM supplemented with 10% exosome-free FBS and grown for 12 hours. Media of each plate was changed with serum-free medium and incubate the cells at 37° C. for 6-12 hours, with or without various antibody treatments. For all ApoEV studies, the tissue culture media was spun at 8000×g for 15 minutes. The pellet was discarded and the supernatants (SN) were passed through 0.22 um filter. ApoEVs were isolated by the ultracentrifugation method. Collected tissue culture media was spun at 5,000×g for 10 minutes to remove contaminating cellular particles, and the resulting supernatant was spun at 80,000×g for 4 hours at 4° C. to pellet ApoEVs. ApoEV pellets were resuspended in 500 μl of serum-free medium and were used for either cellular treatments, dot blots assays and immunoblotting assays.

MDA-MB-436 cells = experiment: Flow cytometry of surface PD-L1 on tumor cells treated with DR5 agonist antibodies (FIG. 20B); assay type: cell-based, human
Protocol: FIGS. 20A-20C. (FIG. 20A) 3 biological replicates of total PD-L1 and GAPDH from triple negative breast cancer cell (MDAMB-436) and ovarian cell (OVCAR-3) lysates treated with lexatumumab for 6 hours. (FIG. 20B) Raw mean fluorescent intensity (MFI) and % positive PD-L1 counts from the cells treated with indicated DR5 agonist antibodies. MFI values are shown on the top of solid color bars. There are multiple instances (shown on the top) where despite having lower % positive PD-L1 population, MFI values were higher after indicated DR5 agonist treatments. As an example, in MDA-MB-436 cells treated with tigatuzumab and lexatumumab, lexatumumab treated cells had higher % positive PD-L1 population (9.32 vs 11.97), however MFI was higher in tigatuzumab treated population (107.54 vs 45.87). (FIG. 20C) KMTR2 treated (50 μg, 4 doses) UCD52 TNBC PDX tumors were stained for PD-L1 using immunohistochemistry (IHC). 3 additional representative images are shown. Also see FIG. 1L.
as §1
PD-L1 surface expression analysis of tumor derived cells. The cell surface expression of PD-L1 from tumor-derived cell was analyzed by flow cytometry. Isolated cells were suspended in FACS buffer (PBS containing 1% FBS). The single cell suspension was then incubated with primary PD-L1 antibodies (1:400 dilution) for 1 hour at 4° C. with gentle mixing. […] Following 3 times wash with FACS buffer, the cells were then incubated with fluorescently labeled (alexa 488) anti-Rabbit secondary antibody for 1 hour. Cells were then washed 3-4 times with FACS buffer and flow cytometry was performed using BD FACSCALIBUR™. The data was analyzed by FCS Express (De Novo Software) and FlowJo software.

[2] = tested on: chi-G4S-DR5 stable 4T1 tumors; experiment: Surface PD-L1 flow cytometry of cells recovered from Chi-G4S-DR5 stable 4T1 tumors; assay type: in vivo, mouse; details: 4 doses; flow cytometry of recovered tumors (FIGS. 5G, 23)
Excerpt: Mechanical dissociation of tumors to obtain single-cell suspensions. Viable single cells from tumor tissues were isolated as described in Leelatian et al, 2017. Briefly, after indicated antibody treatments (4-6 doses) mice were euthanized and tumors were harvested using sterile scissors and forceps. After excision of tumor, they were minced into small pieces in sterile RPMI-1640 media using two single-edged razor blades. Small tumor pieces were passed through a 70 µm cell strainer in sterile RPMI-1640 media. A rubber plunger and syringe were used to mesh the dissociated cells through the cell strainer and media containing dissociated cells was collected onto a sterile labeled conical tube. Dissociated tumor cells were subjected to flow cytometry (FACS) analysis for PD-L1, DR5, N-cadherin, FOLR1, CD47 etc. surface expression as described under flow cytometry protocol.
PD-L1 surface expression analysis of tumor derived cells. The cell surface expression of PD-L1 from tumor-derived cell was analyzed by flow cytometry. Isolated cells were suspended in FACS buffer (PBS containing 1% FBS). […] The data was analyzed by FCS Express (De Novo Software) and FlowJo software.
Chimeric DR5 cloning and Human DR5 agonist testing studies in Balb/c animals. […] Tumors were monitored as described herein above. […]

Row | Substance | PD-L1 stabilization by IHC (UCD52 TNBC PDX tumors) | overall ubiquitin signal in lysates (DR5) | PD-L1 and CSN5 stabilization in lysates (PD-L1) | PD-L1 stabilization / surface mobilization in DR5-KO lines (DR5; DR5-KO compared to DR5-WT cells) | S5a/PSMD4 levels (DR5; MDA-MB-436 WT and DR5-KO cells) | PD-L1 in ApoEVs / shuttling of PD-L1 via ApoEVs [1] | PD-L1 mean fluorescent intensity (MFI) (MDA-MB-436 cells; MDA-MB-436 cells treated with DR5 agonist antibody (FIG. 20B)) | % positive PD-L1 population (MDA-MB-436 cells; MDA-MB-436 cells treated with DR5 agonist antibody, raw flow cytometry counts (FIG. 20B)) [%] | PD-L1 on cell surface of tumor cells [2]
1 | KMTR2: Monospecific Antibody, Human DR5 activator; VL and VH SEQ ID NOs: 7 and 8 | PD-L1 stabilization was also confirmed | increased only in DR5 sensitive cell lysates | – | – | – | – | – | – | –
2 | TNF-α | – | – | stabilized both PD-L1 and CSN5 | remained unchanged | stabilized PD-L1 without affecting S5a levels | did not shuttle significant amount of PD-L1 via ApoEVs | – | – | –
3 | lexatumumab: Monospecific Antibody, Human DR5 activator; VL and VH SEQ ID NOs: 1 and 2 | – | increased only in DR5 sensitive cell lysates | – | – | – | – | 45.87 | 11.97 | higher overall PD-L1 on cell surface
